Data set [1] relates to LC3-I and LC3-II expression in PC3 cells. The data set is described as follows: Western blot of LC3-I / LC3-II in PC3 cells. Type of data set: cell-based, human.
The subject of the next data set is A549 cells. The note with it: 96 h, 5 µM.
In another data set the test system is MCF-7 cells. The note with it: 96 h, 5 µM.
For data set [2], the system named is SQSTM1/p62 expression in PC3 cells. Type of data set: cell-based, human.
A further data set deals with DU145 cells. Type of data set: cell-based, human.
In data set [3] the target is human recombinant His-tagged LC3B protein (Homo sapiens, UniProt Q9GZQ8). Type of data set: binding.
The next data set relates to bladder cancer. The arrangement: method as in PMID 31574376. The note with it: combination with autophagy inhibitors; ref [27]; cited from earlier work.

Read-outs that look alike come from different tables or passages of the source. Where a SMILES comes first, the peptide text is derived from it. Bridges are numbered along the chain shown (N, C = ends). Where no end group is shown, it is not given here. [ ]: non-standard residue; d: D form. The star is where a group is joined. d(pT) = C[C@H](OP(=O)(O)O)[C@@H](N)C(=O)O; pY = N[C@@H](Cc1ccc(OP(=O)(O)O)cc1)C(=O)O; OBn = c1ccc(CO*)cc1; Bn = c1ccc(C*)cc1

The text below walks through data of PMC11083565, “Computational Design of Novel Cyclic Peptides Endowed with Autophagy-Inhibiting Activity on Cancer Cell Lines” (International Journal of Molecular Sciences, 2024).

Consider `Cn1cnc(N)c2ncnc1-2` [Pep 3-MA, 3-methyladenine, reference compound], for which, in data set [1] (PC3, 3-MA 1 mM, compared with Pep3 effect), the “LC3-I and LC3-II expression” value is “The same effect on LC3-I and LC3-II expression”.
As to “DIDEFDLLEGDE [LIR2-RavZ, reference compound]”, the “cell viability A549” value in the data set with A549 cells was found to be 81.1%. The “cell viability MCF-7” value in the data set on MCF-7 cells worked out at 85.4%.
On to `CC(=O)N[C@@H](CC(=O)O)C(=O)N[C@@H](CCC(=O)OCc1ccccc1)C(=O)N[C@@H](C(=O)N[C@@H](CCC(=O)O)C(=O)N[C@H](Cc1ccccc1)C(=O)N[C@@H](C(=O)N[C@@H](Cc1ccc(OP(=O)(O)O)cc1)C(=O)N[C@@H](CC(C)C)C(=O)N[C@@H](CCC(=O)O)C(=O)N[C@@H]1CSSC[C@H](C(N)=O)NC(=O)[C@H](CC(=O)O)NC1=O)[C@H](C)OP(=O)(O)O)[C@H](C)OCc1ccccc1` [Pep6] (Ac-DE(OBn)[dT](Bn)E[dF][d(pT)][pY]LE[dC]D[dC]-NH2; disulfide 10-12), for which, in data set [1], the “LC3-I and LC3-II expression” value is recorded as “significantly reduced”; the LC3-II/LC3-I ratio result is “without changing the LC3-II/LC-I ratio”; the “LC3-II/LC3-I ratio with trehalose” value is listed as “able to decrease the LC3-II/LC3- ratio compared to trehalose alone”. For the same compound, the p62 expression result in [2] was “significantly increased”. In addition, the “effect on PNT2 cells” value with PNT2 cells is recorded as “ineffective”. In the data set on PC3 cells, the “duration of antitumoral effect” value is “more stable over time than Pep3”, the “effect on PC3 cell viability” value is on record as “reduction in cell viability” and the “relative efficacy on PC3 cell viability” value was “greater efficacy of Pep6 compared to LIR2-RavZ at all doses used”. For the same compound, the “cell viability A549” value in the data set on A549 cells amounted to 76.7%. For the same compound, the “cell viability MCF-7” value in the data set on MCF-7 cells is on record as 80.7%. In addition, the “effect on DU145 cell viability” value in the data set with DU145 cells is listed as “ineffective”. For the same compound, the “Kd compared with LIR2-RavZ” value in [3] was “about three times lower”.
`CNC(=O)c1ccc(N2C(=S)N(c3ccc(C#N)c(C(F)(F)F)c3)C(=O)C2(C)C)cc1F` [enzalutamide]: in the data set on bladder cancer, the “apoptosis of bladder cancer” value was “effectively induced bladder cancer apoptosis in vitro and in vivo”.
